Measured values: patent publication US7829578B1, “Aromatic ketones and uses thereof” (Oregon Health & Science University, priority 2005, dated 2010)
Read-outs that look alike come from different tables or passages of the source. Each block holds one molecule with its values, some of them ahead of it.

What was measured:
[1] = test system: Plasmodium parasitized red blood cells; test: Oxygen consumption (respiration) by parasitized red blood cells (FIG. 3); type: cell-based; conditions: compared with atovaquone at equimolar concentrations
Excerpt: While not intending to be limited to any mechanism of action, it is contemplated that some of the presently described compounds may act through inhibiting parasite growth through inhibition of the enzyme cytochrome b.

[2] = test system: multidrug resistant Dd2 strain of P. falciparum; test: Isobolar analysis of combination with clopidol in vitro (FIG. 4); type: cell-based, Plasmodium falciparum
Experimental: Values below the theoretical straight line of addition are considered to be indicative of synergism. This study was performed with the multidrug resistant Dd2 strain of P. falciparum.

[3] = test system: drug susceptible (D6) strain of Plasmodium falciparum; test: In vitro antimalarial MSF (SyBrGreen I fluorescence) assay, D6 strain; type: cell-based; conditions: for improvement of antimalarial potency by the QZ group: compared to IC50 of the parent compound without the QZ side chain
Experimental: (§1) Four different laboratory strains of P. falciparum were cultured in human erythrocytes by standard methods under a low oxygen atmosphere (5% O2, 5% CO2, 90% N2) in an environmental chamber. The culture medium was RPMI 1640, supplemented with 25 mM Hepes buffer, 25 mg/liter gentamicin sulfate, 45 mg/liter hypoxanthine, 10 mM glucose, 2 mM glutamine, and 0.5% Albumax II (complete medium). The parasites were maintained in fresh human erythrocytes suspended at a 2% hematocrit in complete medium at 37° C. Stock cultures were sub-passaged every 3 to 4 days by transfer of infected red cells to a flask containing complete medium and uninfected erythrocytes.
(§2) In vitro antimalarial activity of the test compounds was assessed by a fluorescence-based method described previously (Smilkstein et al., 2004, Antimicrobial Agents and Chemotherapy, Vol. 48, pgs. 1803-1806) (reference format?). The studies were set up in triplicate in 96 well plates with two-fold dilutions of each test compound across the plate in a total volume of 100 μl and at a final red blood cell concentration of 2% (v/v). Stock solutions of each drug were prepared by dissolving in DMSO at 10 mM. […] In every case, an additional determination was performed to ensure bracketing of the IC50 value by at least an order of magnitude.
(§3) Automated pipeting and dilution was carried out by a programmable Precision 2000 robotic station (Bio-Tek, Winooski, Vt.). An initial parasitemia of 0.2% was attained by addition of normal uninfected red cells to a stock culture of asynchronous parasite infected red cells (PRBC). The plates were incubated for 72 hrs at 37° C. in an atmosphere of 5% CO2, 5% O2, and 90% N2. After this period, the SyBrGreen I dye-detergent mixture (100 μl) was added and the plates were incubated at room temperature for an hour in the dark and then placed in a 96-well fluorescence plate reader (Gemini-EM, […]) for analysis with excitation and emission wavelength bands centered at 497 and 520 nm, respectively.

[4] = test system: multi-drug resistant strains of Plasmodium falciparum (W2, Dd2, 7G8 and Tm93C1088); test: In vitro antimalarial activity against multi-drug resistant strains; type: cell-based; conditions: for IC50: Plasmodium falciparum; for IC50 values, stated in words: against multidrug resistant Plasmodium falciparum parasites
Experimental: as §1, §2, §3

[5] = test system: multi-drug resistant strain (W2) of Plasmodium falciparum; test: In vitro antimalarial activity, W2 strain; type: cell-based; conditions: read-out: IC50 against multi-drug resistant strain (W2)
Experimental: as §1
In vitro antimalarial activity of the test compounds was assessed by a fluorescence-based method described previously (Smilkstein et al., 2004, Antimicrobial Agents and Chemotherapy, Vol. 48, pgs. 1803-1806) (reference format?). […]
Automated pipeting and dilution was carried out by a programmable Precision 2000 robotic station (Bio-Tek, Winooski, Vt.). […] After this period, the SyBrGreen I dye-detergent mixture (100 μl) was added and the plates were incubated at room temperature for an hour in the dark and then placed in a 96-well fluorescence plate reader (Gemini-EM, […]) for analysis with excitation and emission wavelength bands centered at 497 and 520 nm, respectively.

[6] = test system: Murine splenic lymphocytes; test: MSLCs-concanavalin A induced proliferation (blastogenesis) cytotoxicity assay, Alamar Blue fluorescence; type: cell-based; conditions: Table 3, 48-hr MSLCs-concanavalin A induced proliferation
[7] = test system: multi-drug resistant (Dd2) strain of Plasmodium falciparum; test: In vitro antimalarial MSF (SyBrGreen I fluorescence) assay, Dd2 strain; type: cell-based; conditions: Table 3
Experimental: as §1, §2, §3

[8] = Plasmodium falciparum, D6, read-out: IC50 against drug sensitive (D6) strain

IC50 [3, 8]: ~133 nM
IC50 [4]: ~133 nM
Compound: O=C1C=C(OCCCCC(F)(F)F)C(=O)c2ccccc21 [No. 35, 2-(5,5,5-trifluoropentyloxy)-1,4-naphthoquinone]
improvement of antimalarial potency by the QZ group [3]: roughly 50 fold

IC50 values, stated in words [4]: low nanomolar range
Compound: COc1ccc2c(=O)c(CCCCCC(F)(F)F)c(C)[nH]c2c1 [No. 44, 2-methyl-3-(6,6,6-trifluorohexyl)-7-methoxy-4(1H)-quinolone]
inhibition of oxygen consumption (respiration) ([1]; listed as 2-methyl-3-(6,6,6-trifluorohexyl)-7-methoxy-4-quinolone): equivalent to atovaquone at equimolar concentrations

IC50 [5]: ~0.2 nM
IC50 ([3]; read-out: IC50 against drug sensitive (D6) strain): ~0.2 nM
Compound: COc1ccc2c(=O)c(CCCCCCCCCCC(F)(F)F)c(C)[nH]c2c1 [No. 45, 2-methyl-3-(11,11,11-trifluoro-undecy1)-7-methoxy-4(1H)-quinolone]
improvement of antimalarial potency by the QZ group [3]: more than 1,000 fold

IC50 ([3]; Table 3, MSF assay, read-out: D6 IC50): 1.2 nM
IC50 [7]: 1.2 nM
Compound: CCOC(=O)c1c[nH]c2cc(OCCCCCC(F)(F)F)ccc2c1=O [compound 46]
IC50 [6]: > 25000 nM

The remaining lines, values behind:

Compound: COc1ccc2c(=O)c(CCCCCC(F)(F)F)c(C)[nH]c2c1 [2-methyl-3-(6,6,6-trifluorohexyl)-7-methoxy-4(1H)-quinolone]
inhibition of oxygen consumption (respiration) [1]: inhibiting oxygen consumption by Plasmodium parasitized red blood cells in similar fashion to atovaquone
interaction with clopidol [2]: acting in synergy with clopidol

Compound: O=c1c2ccc(O)cc2oc2cc(OCCCCCC(F)(F)F)ccc12 [3-(6,6,6-trifluorohexyloxy)-6-hydroxyxanthone]
IC50 [3, 8]: ~700 nM
improvement of antimalarial potency by the QZ group [3]: more than 100 fold
IC50 [4]: ~700 nM

Compound: O=C1C=C(OCCCCC(F)(C(F)(F)F)C(F)(F)F)C(=O)c2ccccc21 [NAP 005, 2-(5,6,6,6-tetrafluoro-5-trifluoromethyl-hexyloxy)-[1,4]naphthoquinone]
IC50 values, stated in words [4]: low nanomolar range
inhibition of oxygen consumption (respiration) [1]: does not inhibit oxygen consumption

Compound: O=c1c2ccc(Cl)cc2[nH]c2cc(OCCCCCC(F)(F)F)ccc12 [No. 21, 3-(6,6,6-trifluorohexyloxy)-6-chloroacridone]
IC50 [3, 8]: 0.16 nM
improvement of antimalarial potency by the QZ group [3]: more than 10,000 fold
IC50 [4]: 0.16 nM
